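Test compounds were applied to cells in 96-well plates for 48 hours at 5 doses. TGI: total growth inhibition.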
Assays:
Test in all cases: NCI tumour cell line growth inhibition, 48 h
786-0 renal = system: 786-0 renal
A498 renal = system: A498 renal
A549 NSCLC = system: A549 NSCLC
ACHN renal = system: ACHN renal
CAKI-1 renal = system: CAKI-1 renal
CCRF-CEM leukemia = system: CCRF-CEM leukemia
COLO 205 colon = system: COLO 205 colon
DLD-1 colon = system: DLD-1 colon
DMS 114 small cell lung = system: DMS 114 small cell lung
DMS 273 small cell lung = system: DMS 273 small cell lung
EKVX NSCLC = system: EKVX NSCLC
HCC-2998 colon = system: HCC-2998 colon
HCT-116 colon = system: HCT-116 colon
HCT-15 colon = system: HCT-15 colon
HL-60(TB) leukemia = system: HL-60(TB) leukemia
HOP-18 NSCLC = system: HOP-18 NSCLC
HOP-62 NSCLC = system: HOP-62 NSCLC
HOP-92 NSCLC = system: HOP-92 NSCLC
HT29 colon = system: HT29 colon
IGROV1 ovarian = system: IGROV1 ovarian
K-562 leukemia = system: K-562 leukemia
KM12 colon = system: KM12 colon
KM20L2 colon = system: KM20L2 colon
LOX IMVI melanoma = system: LOX IMVI melanoma
LXFL 529 NSCLC = system: LXFL 529 NSCLC
M14 melanoma = system: M14 melanoma
M19-MEL melanoma = system: M19-MEL melanoma
MALME-3M melanoma = system: MALME-3M melanoma
MOLT-4 leukemia = system: MOLT-4 leukemia
NCI-H226 lung = system: NCI-H226 lung
NCI-H23 lung = system: NCI-H23 lung
NCI-H460 lung = system: NCI-H460 lung
NCI-H522 lung = system: NCI-H522 lung
OVCAR-3 ovarian = system: OVCAR-3 ovarian
OVCAR-4 ovarian = system: OVCAR-4 ovarian
OVCAR-5 ovarian = system: OVCAR-5 ovarian
OVCAR-8 ovarian = system: OVCAR-8 ovarian
RPMI-8226 leukemia = system: RPMI-8226 leukemia
RXF-631 renal = system: RXF-631 renal
SF-268 CNS = system: SF-268 CNS
SF-295 CNS = system: SF-295 CNS
SF-539 CNS = system: SF-539 CNS
SK-MEL-2 melanoma = system: SK-MEL-2 melanoma
SK-MEL-28 melanoma = system: SK-MEL-28 melanoma
SK-MEL-5 melanoma = system: SK-MEL-5 melanoma
SK-OV-3 ovarian = system: SK-OV-3 ovarian
SN12C renal = system: SN12C renal
SNB-19 CNS = system: SNB-19 CNS
SNB-75 CNS = system: SNB-75 CNS
SNB-78 CNS = system: SNB-78 CNS
SR leukemia = system: SR leukemia
SW-620 colon = system: SW-620 colon
TK-10 renal = system: TK-10 renal
U251 CNS = system: U251 CNS
UACC-257 melanoma = system: UACC-257 melanoma
UACC-62 melanoma = system: UACC-62 melanoma
UO-31 renal = system: UO-31 renal
XF 498 CNS = system: XF 498 CNS
RXF 393 renal = system: RXF 393 renal
MCF7 breast = system: MCF7 breast
NCI/ADR-RES ovarian = system: NCI/ADR-RES ovarian
P388 leukemia = system: P388 leukemia
P388/ADR leukemia = system: P388/ADR leukemia
SN12K1 renal = system: SN12K1 renal

Compound: COc1cc(C2(C)SCCCS2)c(I)c(OC)c1OC
- TGI (786-0 renal): > 100 µM
- TGI (A498 renal): > 100 µM
- TGI (A549 NSCLC): > 100 µM
- TGI (ACHN renal): > 100 µM
- TGI (CAKI-1 renal): > 100 µM
- TGI (CCRF-CEM leukemia): > 100 µM
- TGI (COLO 205 colon): > 100 µM
- TGI (DLD-1 colon): > 100 µM
- TGI (DMS 114 small cell lung): > 100 µM
- TGI (DMS 273 small cell lung): > 100 µM
- TGI (EKVX NSCLC): > 100 µM
- TGI (HCC-2998 colon): > 100 µM
- TGI (HCT-116 colon): > 100 µM
- TGI (HCT-15 colon): > 100 µM
- TGI (HL-60(TB) leukemia): > 100 µM
- TGI (HOP-18 NSCLC): > 100 µM
- TGI (HOP-62 NSCLC): > 100 µM
- TGI (HOP-92 NSCLC): > 100 µM
- TGI (HT29 colon): > 100 µM
- TGI (IGROV1 ovarian): > 100 µM
- TGI (K-562 leukemia): > 100 µM
- TGI (KM12 colon): > 100 µM
- TGI (KM20L2 colon): > 100 µM
- TGI (LOX IMVI melanoma): > 100 µM
- TGI (LXFL 529 NSCLC): > 100 µM
- TGI (M14 melanoma): > 100 µM
- TGI (M19-MEL melanoma): > 100 µM
- TGI (MALME-3M melanoma): > 100 µM
- TGI (MOLT-4 leukemia): > 100 µM
- TGI (NCI-H226 lung): > 100 µM
- TGI (NCI-H23 lung): > 100 µM
- TGI (NCI-H460 lung): > 100 µM
- TGI (NCI-H522 lung): > 100 µM
- TGI (OVCAR-3 ovarian): > 100 µM
- TGI (OVCAR-4 ovarian): > 100 µM
- TGI (OVCAR-5 ovarian): > 100 µM
- TGI (OVCAR-8 ovarian): > 100 µM
- TGI (RPMI-8226 leukemia): > 100 µM
- TGI (RXF-631 renal): > 100 µM
- TGI (SF-268 CNS): > 100 µM
- TGI (SF-295 CNS): > 100 µM
- TGI (SF-539 CNS): > 100 µM
- TGI (SK-MEL-2 melanoma): > 100 µM
- TGI (SK-MEL-28 melanoma): > 100 µM
- TGI (SK-MEL-5 melanoma): > 100 µM
- TGI (SK-OV-3 ovarian): > 100 µM
- TGI (SN12C renal): > 100 µM
- TGI (SNB-19 CNS): > 100 µM
- TGI (SNB-75 CNS): > 100 µM
- TGI (SNB-78 CNS): > 100 µM
- TGI (SR leukemia): > 100 µM
- TGI (SW-620 colon): > 100 µM
- TGI (TK-10 renal): > 100 µM
- TGI (U251 CNS): > 100 µM
- TGI (UACC-257 melanoma): > 100 µM
- TGI (UACC-62 melanoma): > 100 µM
- TGI (UO-31 renal): > 100 µM
- TGI (XF 498 CNS): > 100 µM

Compound: CC(=O)OCC(OC(C)=O)C(OC(C)=O)C(OC(C)=O)C(=O)CNn1c(-c2ccccc2Cl)nc2ccc(Br)cc2c1=O (stereo unspecified)
- TGI (786-0 renal): > 100 µM
- TGI (A498 renal): > 100 µM
- TGI (A549 NSCLC): > 100 µM
- TGI (ACHN renal): > 100 µM
- TGI (CAKI-1 renal): > 100 µM
- TGI (CCRF-CEM leukemia): > 100 µM
- TGI (COLO 205 colon): > 100 µM
- TGI (DMS 114 small cell lung): > 100 µM
- TGI (DMS 273 small cell lung): > 100 µM
- TGI (EKVX NSCLC): > 100 µM
- TGI (HCT-116 colon): > 100 µM
- TGI (HCT-15 colon): > 100 µM
- TGI (HL-60(TB) leukemia): 90.1 µM
- TGI (HOP-62 NSCLC): > 100 µM
- TGI (HT29 colon): > 100 µM
- TGI (K-562 leukemia): > 100 µM
- TGI (KM12 colon): > 100 µM
- TGI (KM20L2 colon): > 100 µM
- TGI (LOX IMVI melanoma): > 100 µM
- TGI (LXFL 529 NSCLC): > 100 µM
- TGI (M14 melanoma): > 100 µM
- TGI (M19-MEL melanoma): > 100 µM
- TGI (MALME-3M melanoma): > 100 µM
- TGI (MOLT-4 leukemia): > 100 µM
- TGI (NCI-H23 lung): > 100 µM
- TGI (NCI-H460 lung): > 100 µM
- TGI (NCI-H522 lung): > 100 µM
- TGI (OVCAR-3 ovarian): > 100 µM
- TGI (OVCAR-4 ovarian): > 100 µM
- TGI (OVCAR-5 ovarian): > 100 µM
- TGI (OVCAR-8 ovarian): > 100 µM
- TGI (RPMI-8226 leukemia): > 100 µM
- TGI (RXF 393 renal): > 100 µM
- TGI (SF-268 CNS): > 100 µM
- TGI (SF-295 CNS): > 100 µM
- TGI (SF-539 CNS): > 100 µM
- TGI (SK-MEL-2 melanoma): > 100 µM
- TGI (SK-MEL-28 melanoma): > 100 µM
- TGI (SK-MEL-5 melanoma): > 100 µM
- TGI (SK-OV-3 ovarian): > 100 µM
- TGI (SN12C renal): > 100 µM
- TGI (SNB-19 CNS): > 100 µM
- TGI (SNB-75 CNS): > 100 µM
- TGI (SNB-78 CNS): > 100 µM
- TGI (SR leukemia): > 100 µM
- TGI (SW-620 colon): > 100 µM
- TGI (U251 CNS): > 100 µM
- TGI (UACC-257 melanoma): > 100 µM
- TGI (UACC-62 melanoma): > 100 µM
- TGI (UO-31 renal): > 100 µM
- TGI (XF 498 CNS): 66.2 µM

Compound: CCOC(=O)C[n+]1ccc2c([nH]c3cc(OC)ccc32)c1C
- TGI (A498 renal): > 100 µM
- TGI (A549 NSCLC): > 100 µM
- TGI (CAKI-1 renal): > 100 µM
- TGI (CCRF-CEM leukemia): > 100 µM
- TGI (COLO 205 colon): > 100 µM
- TGI (DLD-1 colon): > 100 µM
- TGI (DMS 114 small cell lung): > 100 µM
- TGI (DMS 273 small cell lung): > 100 µM
- TGI (EKVX NSCLC): > 100 µM
- TGI (HCC-2998 colon): > 100 µM
- TGI (HCT-116 colon): > 100 µM
- TGI (HCT-15 colon): > 100 µM
- TGI (HL-60(TB) leukemia): > 100 µM
- TGI (HOP-18 NSCLC): > 100 µM
- TGI (HOP-62 NSCLC): > 100 µM
- TGI (HOP-92 NSCLC): > 100 µM
- TGI (HT29 colon): > 100 µM
- TGI (IGROV1 ovarian): > 100 µM
- TGI (K-562 leukemia): > 100 µM
- TGI (KM12 colon): > 100 µM
- TGI (KM20L2 colon): > 100 µM
- TGI (LOX IMVI melanoma): > 100 µM
- TGI (M19-MEL melanoma): > 100 µM
- TGI (MALME-3M melanoma): > 100 µM
- TGI (MCF7 breast): > 100 µM
- TGI (MOLT-4 leukemia): > 100 µM
- TGI (NCI-H226 lung): > 100 µM
- TGI (NCI-H23 lung): > 100 µM
- TGI (NCI-H460 lung): > 100 µM
- TGI (NCI-H522 lung): > 100 µM
- TGI (NCI/ADR-RES ovarian): > 100 µM
- TGI (OVCAR-3 ovarian): > 100 µM
- TGI (OVCAR-4 ovarian): > 100 µM
- TGI (OVCAR-5 ovarian): > 100 µM
- TGI (OVCAR-8 ovarian): > 100 µM
- TGI (P388 leukemia): > 100 µM
- TGI (P388/ADR leukemia): > 100 µM
- TGI (RPMI-8226 leukemia): > 100 µM
- TGI (RXF 393 renal): > 100 µM
- TGI (SF-268 CNS): > 100 µM
- TGI (SF-295 CNS): > 100 µM
- TGI (SF-539 CNS): > 100 µM
- TGI (SK-MEL-2 melanoma): > 100 µM
- TGI (SK-MEL-28 melanoma): > 100 µM
- TGI (SK-MEL-5 melanoma): > 100 µM
- TGI (SK-OV-3 ovarian): > 100 µM
- TGI (SN12C renal): > 100 µM
- TGI (SN12K1 renal): > 100 µM
- TGI (SNB-19 CNS): > 100 µM
- TGI (SNB-75 CNS): > 100 µM
- TGI (SNB-78 CNS): > 100 µM
- TGI (SW-620 colon): > 100 µM
- TGI (U251 CNS): > 100 µM
- TGI (UACC-257 melanoma): > 100 µM
- TGI (UACC-62 melanoma): > 100 µM
- TGI (UO-31 renal): > 100 µM
- TGI (XF 498 CNS): > 100 µM
